One molecule from patent US20070270462A1, “8-hydroxyquinoline compounds for treating a polyglutamine (polyQ)-expansion disease” (priority 2005, published 2007) can be followed below.

For assay [1], the system named is Htt exon1-Q103-egfp. As to the kind of experiment: Proteasome inhibitor MG132 treatment of CQ-treated Htt exon1-Q103-egfp-expressing HEK293 cells. The class given is cell-based. Conditions: pan-proteasome inhibitor MG132. The method, then:
(§1) HEK293 or PC12 cells were lysed in PBS buffer containing 1% v/v Triton X-100 and protease inhibitor cocktail (Roche, Indianapolis, Ind.), and passed through a 28 gauge needle to ensure the release of Htt inclusions from the nuclei. Whole mouse brains were homogenized in 50 mM Tris-HCl (pH 7.4), 150 mM NaCl, 1% v/v Triton X-100 and complete protease inhibitor cocktail. Brain homogenate was pre-cleared by centrifuging at 7,500 g for 90 s at 4° C. The supernatant was passed through a 28-gauge needle and boiled in SDS sample buffer for 10 min. Fifty μg of total protein was loaded onto 10% w/v SDS gel containing a 4% w/v stacking gel. Monoclonal antibodies anti-polyglutamine (1:2,000), anti-GAPDH (1:10,000), anti-GFP (1:4,000), and anti-Htt (EM48) in 1:1000 dilution were used for immunoblotting. All western blot experiments were performed at least three times and band intensities were averaged.
(§2) In examining potential mechanisms for the effects of CQ on Htt accumulation, we considered the possibilities that CQ might act to inhibit Htt aggregation or directly influence Htt synthesis or degradation. […] Therefore, we focused on the aspects of Htt synthesis and turnover. To determine whether CQ might down-regulate polyQ-Htt expression at the transcriptional level, we examined the amount of Htt^exon1-Q103-egfp mRNA present after 48 hrs of transfection by Northern analysis. […]

In another assay the test system is Htt exon1-Q103-egfp mRNA. The assay can be described thus: Northern analysis of Htt exon1-Q103-egfp mRNA. Conditions: Northern analysis after 48 hrs of transfection. The class given is cell-based. The method, then: Trizol reagent (Invitrogen, Carlsbad, Calif.) was used to isolate total RNA. Ten μg of total RNA was electrophoresed through 1.25% w/v agarose gel and transferred onto Hybond N+membrane. The membrane was baked in an 80° C. oven for 15 min and UV-crosslinked. Exon 1 of htt containing 103 CAA/CAG-repeats was used as a probe for northern blot detection according to AlkPhos Direct Labeling and Detection System (Amersham Biosciences, Piscataway, N.J.). One hundred ng of the probe was hybridized to the membrane in a 60° C. rotating hybridization oven overnight. The membrane was scanned using the Typhoon 9410 digital scanner (Amersham Biosciences, Piscataway, N.J.) to yield the signal image. The experiment was performed three times and band intensities were averaged.
as §2

The subject of assay [2] is Htt exon1-Q103-egfp. The assay can be described thus: Western blotting of cell extracts, Htt exon1-Q103-egfp expression. It is filed as cell-based.
From the text: (§3) PolyQ-htt-GFP fusion constructs, in which the polyglutamine region is encoded by CAA and CAG-containing tandem repeats ([…]) [SEQ ID NO: 1], human polyglutaminen, were obtained from the Hereditary Disease Foundation, Santa Monica, Calif., USA. PC12 and HEK293 cells were maintained in MEM supplemented with 10% v/v FBS, switched to Opti-MEM without serum for 6 hrs during transfection using Lipofectamine 2000 (Invitrogen, Carlsbad, Calif., USA), and returned to serum-containing medium thereafter (up to 48 hours). […] Control cultures received equivalent amounts of DMSO-containing vehicle (<0.1% w/v DMSO, final concentration).
as §1, with “Monoclonal antibodies anti-polyglutamine (1:2,000), anti-GAPDH (1:10,000), anti-GFP (1:4,000), and anti-Htt (EM48) in 1:1000 dilution were used for immunoblotting. All western blot experiments were performed at least three times and band intensities were averaged.” left out

For another assay, the system named is R6/2 mice. The assay can be described thus: Lateral ventricle area (striatal atrophy) in R6/2 mice. It is filed as in vivo, mouse. Conditions: 11-week old, oral CQ 30 mg/kg/day, versus sham treatment group. The method, then:
A colony of transgenic mice strain R6/2 that is heterozygous for htt exon1 (containing 145 CAG repeats) was maintained, with founders originating and available from The Jackson Laboratory (Bar Harbor, Me., USA). Male transgenic R6/2 mice were bred with background strain (B6CBAFI/J) females. Genotyping was done according to Hockly et al, Brain Res Bull 61, 469-479, 2003. CQ in water was orally administered to mice at 30 mg/kg/day starting at 3 weeks of age and continued until the mice were deceased or sacrificed for tissues. Littermate R6/2 mice were gavaged with water vehicle alone. At the end of CQ treatment mice were anesthetized and transcardially perfused with PBS followed by 4% v/v paraformaldehyde. Blood glucose levels were determined after at least 8 hrs of fasting in 11-week old mice (n=6 for wild-type, n=4 for vehicle-treated R6/2, n=6 for CQ-treated R6/2 littermates) using a 2300 STAT Plus glucose analyzer (YSI, Yellowsonte, Ohio, USA). Fasting blood insulin levels in animals fasted for 8 hrs were measured using an Ultra Sensitive Rat Insulin ELISA Kit (Crystal Chem, Inc., Downers Grove, Ill., USA) according to manufacturer's instructions.
Plasma membrane integrity was evaluated using propidium iodide at 20 μg/ml final concentration. Approximately 200 cells transfected with the Htt^exon1-Q103-egf plasmid were counted for each treatment group 48 hr after transfection. […]

In assay [3] the test system is Htt exon1-Q103-egfp. The assay can be described thus: Fluorescence microscopy of transiently transfected PC12 cells expressing Htt exon1-Q103-egfp. Conditions: CQ 4 μM, 48 hours post-transfection. It is filed as cell-based.
From the text: as §3
Concordant with this reduction in mutant protein expression, cell survival was improved by CQ in a dose dependent fashion with a half maximal effect at 1-2 μM (FIG. 2b). Cell death began to increase at 8 μM, likely due to dose-dependent toxic effects of CQ.

Regarding `Oc1c(I)cc(Cl)c2cccnc12` [CQ, 5-chloro-7-iodo-8-hydroxy-quinoline], in the assay on Htt exon1-Q103-egfp [1], the “suppression of exon1-Q103-egfp protein production by CQ under MG132 treatment” value is “not affected”. Further, in the assay on Htt exon1-Q103-egfp mRNA, the “effect on Htt exon1-Q103-egfp mRNA levels” value was “no significant effect”. Besides, the “CQ concentration at which dose-dependent inhibition of Htt exon1-Q103-egfp expression begins” value in the assay with Htt exon1-Q103-egfp [2] worked out at 0.5 µM. Also, in the assay on Htt exon1-Q103-egfp [2] (2 μM CQ), the “inhibition of Htt exon1-Q103-egfp expression” value was found to be 3.2 fold. Besides, in the assay with R6/2 mice, the “reduction of lateral ventricle area” value came out at 55%. Also, the “fluorescent product of Htt exon1-Q103-egfp” value with Htt exon1-Q103-egfp [3] is “less fluorescent product”.
